Reference: ChEMBL document CHEMBL2396620, “Synthesis and biological evaluation of novel benzoxazinyl-oxazolidinones as potential antibacterial agents” (2013)
In brackets after ≈: the same amount, converted by molar mass.

The compounds below were run on Staphylococcus aureus (assay: Antibacterial activity against methicillin-sensitive Staphylococcus aureus assessed as growth inhibition after 16 hrs by agar dilution method).
Type: functional
For `C/C(=N\OC(C)C)c1ccc(-c2ccc3c(c2)OC[C@H]2[C@H](Cn4ccnn4)OC(=O)N32)cn1`, the MIC was greater than 32 µg/mL.
`O=C1O[C@@H](Cn2ccnn2)[C@@H]2COc3cc(-c4ccc(Cn5cncn5)nc4)ccc3N12` gave an MIC of 0.5 µg/mL (≈ 1.16 µM).
`O=C1O[C@@H](Cn2ccnn2)[C@@H]2COc3cc(-c4ccc(Cn5ncnn5)nc4)ccc3N12` was tested, and the MIC was 1 µg/mL (≈ 2.32 µM).
`O=C1O[C@@H](Cn2ccnn2)[C@@H]2COc3cc(-c4ccc(Cn5cnnn5)nc4)ccc3N12` showed an MIC of 2 µg/mL (≈ 4.64 µM).
`N#Cc1ccc(-c2ccc3c(c2)OC[C@H]2[C@H](Cn4ccnn4)OC(=O)N32)cn1` gave an MIC of 0.25 µg/mL (≈ 0.668 µM).
`Cn1nnnc1-c1ccc(-c2ccc3c(c2)OC[C@H]2[C@H](Cn4ccnn4)OC(=O)N32)cn1` showed an MIC of 2 µg/mL (≈ 4.64 µM).
`Cn1nnc(-c2ccc(-c3ccc4c(c3)OC[C@H]3[C@H](Cn5ccnn5)OC(=O)N43)cn2)n1` showed an MIC of 2 µg/mL (≈ 4.64 µM).
With `Cc1nc(-c2ccc(-c3ccc4c(c3)OC[C@H]3[C@H](Cn5ccnn5)OC(=O)N43)cn2)no1` the MIC was 2 µg/mL (≈ 4.64 µM).
With `O=C1O[C@@H](Cn2ccnn2)[C@@H]2COc3cc(-c4ccc(-n5cc(CO)oc5=O)nc4)ccc3N12` the MIC was 0.5 µg/mL (≈ 1.08 µM).
Work on `CC(=O)NC[C@H]1CN(c2ccc(N3CCOCC3)c(F)c2)C(=O)O1` [LINEZOLID] yielded an MIC of 1 µg/mL (≈ 2.96 µM).

Each compound was assayed on Staphylococcus epidermidis (assay: Antibacterial activity against methicillin-resistant Staphylococcus epidermidis assessed as growth inhibition after 16 hrs by agar dilution method).
Type: functional
Work on `O=C1O[C@@H](Cn2ccnn2)[C@@H]2COc3cc(-c4ccc(Cn5cncn5)nc4)ccc3N12` yielded an MIC of 0.5 µg/mL (≈ 1.16 µM).
With `O=C1O[C@@H](Cn2ccnn2)[C@@H]2COc3cc(-c4ccc(Cn5ncnn5)nc4)ccc3N12` the MIC was 1 µg/mL (≈ 2.32 µM).
`O=C1O[C@@H](Cn2ccnn2)[C@@H]2COc3cc(-c4ccc(Cn5cnnn5)nc4)ccc3N12` gave an MIC of 1 µg/mL (≈ 2.32 µM).
Work on `N#Cc1ccc(-c2ccc3c(c2)OC[C@H]2[C@H](Cn4ccnn4)OC(=O)N32)cn1` yielded an MIC of 0.25 µg/mL (≈ 0.668 µM).
`Cn1nnnc1-c1ccc(-c2ccc3c(c2)OC[C@H]2[C@H](Cn4ccnn4)OC(=O)N32)cn1` showed an MIC of 1 µg/mL (≈ 2.32 µM).
Work on `Cn1nnc(-c2ccc(-c3ccc4c(c3)OC[C@H]3[C@H](Cn5ccnn5)OC(=O)N43)cn2)n1` yielded an MIC of 2 µg/mL (≈ 4.64 µM).
`Cc1nc(-c2ccc(-c3ccc4c(c3)OC[C@H]3[C@H](Cn5ccnn5)OC(=O)N43)cn2)no1` showed an MIC of 4 µg/mL (≈ 9.27 µM).
`O=C1O[C@@H](Cn2ccnn2)[C@@H]2COc3cc(-c4ccc(-n5cc(CO)oc5=O)nc4)ccc3N12` gave an MIC of 1 µg/mL (≈ 2.16 µM).
In the case of `CC(=O)NC[C@H]1CN(c2ccc(N3CCOCC3)c(F)c2)C(=O)O1` [LINEZOLID], the MIC is reported as 1 µg/mL (≈ 2.96 µM).

These compounds were tested on Streptococcus pneumoniae (assay: Antibacterial activity against penicillin-resistant Streptococcus pneumoniae assessed as growth inhibition after 16 hrs by agar dilution method).
Type: functional
`C/C(=N\OC(C)C)c1ccc(-c2ccc3c(c2)OC[C@H]2[C@H](Cn4ccnn4)OC(=O)N32)cn1` gave an MIC greater than 32 µg/mL.
Compound `O=C1O[C@@H](Cn2ccnn2)[C@@H]2COc3cc(-c4ccc(Cn5cncn5)nc4)ccc3N12` has an MIC of 2 µg/mL (≈ 4.65 µM).
Compound `O=C1O[C@@H](Cn2ccnn2)[C@@H]2COc3cc(-c4ccc(Cn5ncnn5)nc4)ccc3N12` has an MIC of 2 µg/mL (≈ 4.64 µM).
`O=C1O[C@@H](Cn2ccnn2)[C@@H]2COc3cc(-c4ccc(Cn5cnnn5)nc4)ccc3N12` was tested, and the MIC was 4 µg/mL (≈ 9.27 µM).
`N#Cc1ccc(-c2ccc3c(c2)OC[C@H]2[C@H](Cn4ccnn4)OC(=O)N32)cn1` gave an MIC of 0.25 µg/mL (≈ 0.668 µM).
With `Cn1nnnc1-c1ccc(-c2ccc3c(c2)OC[C@H]2[C@H](Cn4ccnn4)OC(=O)N32)cn1` the MIC was 2 µg/mL (≈ 4.64 µM).
In the case of `Cn1nnc(-c2ccc(-c3ccc4c(c3)OC[C@H]3[C@H](Cn5ccnn5)OC(=O)N43)cn2)n1`, the MIC is reported as 1 µg/mL (≈ 2.32 µM).
`Cc1nc(-c2ccc(-c3ccc4c(c3)OC[C@H]3[C@H](Cn5ccnn5)OC(=O)N43)cn2)no1` showed an MIC of 1 µg/mL (≈ 2.32 µM).
For `O=C1O[C@@H](Cn2ccnn2)[C@@H]2COc3cc(-c4ccc(-n5cc(CO)oc5=O)nc4)ccc3N12`, the MIC was 0.5 µg/mL (≈ 1.08 µM).

These compounds were tested on Staphylococcus aureus (assay: Antibacterial activity against methicillin-resistant Staphylococcus aureus assessed as growth inhibition after 16 hrs by agar dilution method).
Type: functional
In the case of `O=C1O[C@@H](Cn2ccnn2)[C@@H]2COc3cc(-c4ccc(Cn5cncn5)nc4)ccc3N12`, the MIC is reported as 0.5 µg/mL (≈ 1.16 µM).
In the case of `O=C1O[C@@H](Cn2ccnn2)[C@@H]2COc3cc(-c4ccc(Cn5ncnn5)nc4)ccc3N12`, the MIC is reported as 1 µg/mL (≈ 2.32 µM).
`O=C1O[C@@H](Cn2ccnn2)[C@@H]2COc3cc(-c4ccc(Cn5cnnn5)nc4)ccc3N12` showed an MIC of 2 µg/mL (≈ 4.64 µM).
In the case of `N#Cc1ccc(-c2ccc3c(c2)OC[C@H]2[C@H](Cn4ccnn4)OC(=O)N32)cn1`, the MIC is reported as 0.25 µg/mL (≈ 0.668 µM).
Work on `Cn1nnnc1-c1ccc(-c2ccc3c(c2)OC[C@H]2[C@H](Cn4ccnn4)OC(=O)N32)cn1` yielded an MIC of 1 µg/mL (≈ 2.32 µM).
With `Cn1nnc(-c2ccc(-c3ccc4c(c3)OC[C@H]3[C@H](Cn5ccnn5)OC(=O)N43)cn2)n1` the MIC was 2 µg/mL (≈ 4.64 µM).
`Cc1nc(-c2ccc(-c3ccc4c(c3)OC[C@H]3[C@H](Cn5ccnn5)OC(=O)N43)cn2)no1` gave an MIC of 2 µg/mL (≈ 4.64 µM).
Work on `O=C1O[C@@H](Cn2ccnn2)[C@@H]2COc3cc(-c4ccc(-n5cc(CO)oc5=O)nc4)ccc3N12` yielded an MIC of 1 µg/mL (≈ 2.16 µM).
Compound `CC(=O)NC[C@H]1CN(c2ccc(N3CCOCC3)c(F)c2)C(=O)O1` [LINEZOLID] has an MIC of 1 µg/mL (≈ 2.96 µM).

Each compound was assayed on Staphylococcus aureus (assay: Ratio of linezolid MIC to compound MIC for methicillin-sensitive Staphylococcus aureus).
Type: functional
`O=C1O[C@@H](Cn2ccnn2)[C@@H]2COc3cc(-c4ccc(Cn5cncn5)nc4)ccc3N12` showed a Ratio of 2.
`N#Cc1ccc(-c2ccc3c(c2)OC[C@H]2[C@H](Cn4ccnn4)OC(=O)N32)cn1` gave a Ratio of 4.

Each compound was assayed on Enterococcus faecalis (assay: Antibacterial activity against Enterococcus faecalis assessed as growth inhibition after 16 hrs by agar dilution method).
Type: functional
`C/C(=N\OC(C)C)c1ccc(-c2ccc3c(c2)OC[C@H]2[C@H](Cn4ccnn4)OC(=O)N32)cn1` was tested, and the MIC was greater than 32 µg/mL.
With `O=C1O[C@@H](Cn2ccnn2)[C@@H]2COc3cc(-c4ccc(Cn5cncn5)nc4)ccc3N12` the MIC was 1 µg/mL (≈ 2.32 µM).
`O=C1O[C@@H](Cn2ccnn2)[C@@H]2COc3cc(-c4ccc(Cn5ncnn5)nc4)ccc3N12` showed an MIC of 2 µg/mL (≈ 4.64 µM).
In the case of `O=C1O[C@@H](Cn2ccnn2)[C@@H]2COc3cc(-c4ccc(Cn5cnnn5)nc4)ccc3N12`, the MIC is reported as 4 µg/mL (≈ 9.27 µM).
`N#Cc1ccc(-c2ccc3c(c2)OC[C@H]2[C@H](Cn4ccnn4)OC(=O)N32)cn1` showed an MIC of 1 µg/mL (≈ 2.67 µM).
Work on `Cn1nnnc1-c1ccc(-c2ccc3c(c2)OC[C@H]2[C@H](Cn4ccnn4)OC(=O)N32)cn1` yielded an MIC of 4 µg/mL (≈ 9.27 µM).
Work on `Cn1nnc(-c2ccc(-c3ccc4c(c3)OC[C@H]3[C@H](Cn5ccnn5)OC(=O)N43)cn2)n1` yielded an MIC of 4 µg/mL (≈ 9.27 µM).
For `Cc1nc(-c2ccc(-c3ccc4c(c3)OC[C@H]3[C@H](Cn5ccnn5)OC(=O)N43)cn2)no1`, the MIC was 8 µg/mL (≈ 18.5 µM).
For `O=C1O[C@@H](Cn2ccnn2)[C@@H]2COc3cc(-c4ccc(-n5cc(CO)oc5=O)nc4)ccc3N12`, the MIC was 1 µg/mL (≈ 2.16 µM).

The compounds below were run on Enterococcus faecalis (assay: Ratio of linezolid MIC to compound MIC for Enterococcus faecalis).
Type: functional
For `O=C1O[C@@H](Cn2ccnn2)[C@@H]2COc3cc(-c4ccc(Cn5cncn5)nc4)ccc3N12`, the Ratio was 2.
`N#Cc1ccc(-c2ccc3c(c2)OC[C@H]2[C@H](Cn4ccnn4)OC(=O)N32)cn1` gave a Ratio of 4.

What follows are compounds tested on Staphylococcus epidermidis (assay: Antibacterial activity against methicillin-sensitive Staphylococcus epidermidis assessed as growth inhibition after 16 hrs by agar dilution method).
Type: functional
Compound `C/C(=N\OC(C)C)c1ccc(-c2ccc3c(c2)OC[C@H]2[C@H](Cn4ccnn4)OC(=O)N32)cn1` has an MIC greater than 32 µg/mL.
Compound `O=C1O[C@@H](Cn2ccnn2)[C@@H]2COc3cc(-c4ccc(Cn5cncn5)nc4)ccc3N12` has an MIC of 0.5 µg/mL (≈ 1.16 µM).
With `O=C1O[C@@H](Cn2ccnn2)[C@@H]2COc3cc(-c4ccc(Cn5ncnn5)nc4)ccc3N12` the MIC was 0.5 µg/mL (≈ 1.16 µM).
In the case of `O=C1O[C@@H](Cn2ccnn2)[C@@H]2COc3cc(-c4ccc(Cn5cnnn5)nc4)ccc3N12`, the MIC is reported as 1 µg/mL (≈ 2.32 µM).
`N#Cc1ccc(-c2ccc3c(c2)OC[C@H]2[C@H](Cn4ccnn4)OC(=O)N32)cn1` gave an MIC of 0.25 µg/mL (≈ 0.668 µM).
Compound `Cn1nnnc1-c1ccc(-c2ccc3c(c2)OC[C@H]2[C@H](Cn4ccnn4)OC(=O)N32)cn1` has an MIC of 1 µg/mL (≈ 2.32 µM).
In the case of `Cn1nnc(-c2ccc(-c3ccc4c(c3)OC[C@H]3[C@H](Cn5ccnn5)OC(=O)N43)cn2)n1`, the MIC is reported as 1 µg/mL (≈ 2.32 µM).
In the case of `Cc1nc(-c2ccc(-c3ccc4c(c3)OC[C@H]3[C@H](Cn5ccnn5)OC(=O)N43)cn2)no1`, the MIC is reported as 2 µg/mL (≈ 4.64 µM).
Work on `O=C1O[C@@H](Cn2ccnn2)[C@@H]2COc3cc(-c4ccc(-n5cc(CO)oc5=O)nc4)ccc3N12` yielded an MIC of 0.5 µg/mL (≈ 1.08 µM).
`CC(=O)NC[C@H]1CN(c2ccc(N3CCOCC3)c(F)c2)C(=O)O1` [LINEZOLID] gave an MIC of 1 µg/mL (≈ 2.96 µM).

Each compound was assayed on Streptococcus pneumoniae (assay: Ratio of linezolid MIC to compound MIC for penicillin-resistant Streptococcus pneumoniae).
Type: functional
Work on `N#Cc1ccc(-c2ccc3c(c2)OC[C@H]2[C@H](Cn4ccnn4)OC(=O)N32)cn1` yielded a Ratio of 4.

The compounds below were run on Staphylococcus epidermidis (assay: Ratio of linezolid MIC to compound MIC for methicillin-sensitive Staphylococcus epidermidis).
Type: functional
`O=C1O[C@@H](Cn2ccnn2)[C@@H]2COc3cc(-c4ccc(Cn5cncn5)nc4)ccc3N12` was tested, and the Ratio was 2.
`N#Cc1ccc(-c2ccc3c(c2)OC[C@H]2[C@H](Cn4ccnn4)OC(=O)N32)cn1` was tested, and the Ratio was 4.
